Source: ChEMBL document CHEMBL1129742, “Development of a high specific activity sulfur-35-labeled sulfonamide radioligand that allowed the identification of a new growth hormone secretagogue receptor” (J Med Chem, 1996)
Non-standard residues stand in square brackets, D forms with d. Residues, ends and D or L forms follow the SMILES beside them.

Columns and labels:
[1] = species on record: Rattus norvegicus; test: Effective Concentration for GH secretion from rat pituitary cell was determined; format: functional; settings: Pituitary gland cell
[2] = Dissociation constant was evaluated which is similar to Ki (inhibitory constant)

Row | SMILES | EC50 [1] [nM] | Kd [2] [nM]
1 | CC(C)(N)CC(=O)N[C@H]1CCc2ccccc2N(Cc2ccc(-c3ccccc3-c3nn[nH]n3)cc2)C1=O | > 5000 | 
2 | C[C@H](NC(=O)[C@@H](Cc1c[nH]c2ccccc12)NC(=O)[C@@H](N)Cc1c[nH]cn1)C(=O)N[C@@H](Cc1c[nH]c2ccccc12)C(=O)N[C@H](Cc1ccccc1)C(=O)N[C@@H](CCCCN)C(N)=O (H-H[dW]AW[dF]K-NH2) | 10 | 
3 | CC(C)(N)C(=O)N[C@H](COCc1ccccc1)C(=O)N1CCC2(CC1)CN(S(C)(=O)=O)c1ccccc12 [IBUTAMOREN] | […] | 0.161
